Measurements taken from patent publication US20200278355A1, “CONJUGATED PROTEINS AND USES THEREOF” (THE SCRIPPS RESEARCH INSTITUTE, priority 2017, published 2020).

System: cysteines in NSCLC cell proteomes (H460 cells)
Assay: isoTOP-ABPP of compound-treated H460 cells, proteome-wide
Type: cell-based, human
Settings: KEAP1-mutant NSCLCs
Procedure: For analysis of NR0B1 ligands or control compound reactivity, H460 cells or H460 cells expressing luciferase in a 10 cm plate were incubated with indicated compounds in serum/dye-free RPMI for 3 hours at 37° C. Cells were washed once ice-cold PBS and lysed in 1% Triton X-100 dissolved in PBS with protease inhibitors (Sigma) by sonication. Samples were clarified by centrifugation for 10 min at 16,000×g. Lysate was adjusted to 1.5 mg ml^−1 in 500 μL.
Samples were labeled for 1 h at ambient temperature with 100 μM iodoacetamide alkyne (1, IA-alkyne, 5 μL of 10 mM stock in DMSO). Samples were conjugated by copper-catalyzed azide-alkyne cycloaddition (CuAAC) to isotopically labeled, TEV-cleavable tags (TEV-tags). Heavy CuAAC reaction mixtures was added to the DMSO-treated or shGFP control samples and light CuAAC reaction mixture was added to compound-treated or shNRF2 samples. The CuAAC reaction mixture consisted of TEV tags (light or heavy, 10 μL of 5 mM stocks in DMSO, final concentration=100 μM), 1 mM tris(2-carboxyethyl)phosphine hydrochloride (TCEP; fresh 50× stock in water, final concentration=1 mM), ligand (17× stock in DMSO:t-butanol 1:4, final concentration=100 μM) and 1 mM CuSO4 (50× stock in water, final concentration=1 mM). The samples were allowed to react for 1 h at which point the samples were centrifuged (16,000×g, 5 min, 4° C.). […]

Row | SMILES | overall proteomic selectivity
1 | O=C(CCl)N(Cc1cccc(Cl)c1F)c1ccc(Cl)nc1 [BPK-26, 2-chloro-N-(3-chloro-2-fluorobenzyl)-N-(6-chloropyridin-3-yl)acetamide] | good overall proteomic selectivity
2 | O=C(c1ccc(N2CCOCC2)cc1)N1CCCC(N(Cc2ccccc2)C(=O)CCl)CC1 (centres unmarked) [BPK-29, N-benzyl-2-chloro-N-(1-(4-morpholinobenzoyl)azepan-4-yl)acetamide] | good overall proteomic selectivity
